“And” between values parts separate entries of the source, which are not always exact repeats. Identical values can stand only once. Like-named read-outs stand apart in the source and are kept apart here. Residues, ends and D or L forms follow the SMILES beside them. *: point of attachment. X1 = Cn1c2ccccc2c2ccnc(-c3ccc(/C=C/C(=O)*)cn3)c21
How the values were obtained:
Format in all cases: cell-based, human
MRC-5 fibroblasts = settings: for PI (IC50,dark/IC50,light) MRC-5: blue light 460 nm
Description: (§1) The effect of Ir-H, Ir-Me, Ru-H, and Ru-Me on cell viability was evaluated in the A549 lung cancer and PC-3 prostate cancer cell lines by MTT assays. PC-3 cells were specifically chosen due to their high expression levels of GRPR on their surface, allowing for further evaluation of the activity of the BN3-derived metallopeptides Ir-BN and Ru-BN.[38],[51] In contrast, A549 cells express low levels of GRPR.[52] MRC-5 fibroblasts were used as a nonmalignant cell model.[53]Table 3 reports the half maximal inhibitory concentration (IC50) values obtained after treating the cells either under dark conditions or upon exposure to blue light at a dose of 24.1 J cm^–2. The photocytotoxicity index (PI), defined as the IC50,dark/IC50,light, is provided for each compound.
(§2) Stock solutions of the complexes and metallopeptides were initially prepared at a concentration of 5 mM in DMSO and then diluted in sterile distilled water to achieve a final concentration of 1 mM, with a resulting DMSO concentration of 20% v/v. Cells were seeded into 96-well plates at a density of 2500 cells/well for A549, 3500 cells/well for PC-3, and 5500 cells/well for MRC-5. Following 24 h of incubation for attachment, cells were treated in triplicate with freshly prepared working solutions of the compounds in the culture medium at concentrations ranging from 0.001 to 100 μM. The maximum DMSO concentration in the working solutions was 2% (v/v). The working concentrations for each compound were adjusted based on their cytotoxicity. Following a 4 h incubation period to allow internalization of the compounds into the cells, the plates were kept in dark conditions or exposed to blue (460 nm) or red (655 nm) light for 1 h using an LED system (LuxLight), providing a total dose of 24.1 J cm^–2. All plates were incubated in the dark for an additional 43 h. Cells were then washed with phosphate-buffered saline (PBS), and 100 μL of fresh culture medium containing 10% of 3-[4,5-dimethylthiazol-2-yl]-2,5 diphenyl tetrazolium bromide (MTT) solution (0.5 mg/mL) (Sigma- Aldrich) was added to each well. After a 2 h incubation period, the formazan crystals were dissolved in DMSO, and the absorbance was measured at 570 nm using a Multiscan Plate Reader (Synergy 4, Biotek, Winooski, USA). The concentration causing a 50% reduction in cell viability (IC50) was determined for each compound with the Gen5 software (BioTek). At least three independent experiments were conducted for each compound.

[1] = system: PC-3 prostate cancer cells; settings: for PI (IC50,dark/IC50,light) PC-3: blue light 460 nm
Description: as §1, §2

A549 lung cancer cells = settings: for PI (IC50,dark/IC50,light) A549: blue light 460 nm
Description: as §1, §2

PC-3 cells = experiment: Superoxide anion generation (ROS-ID Superoxide Detection Kit); settings: IC50,light 4 h, blue light 1 h
Description: The photocytotoxic effects of the complexes and metallopeptides were further elucidated by evaluating their ability to photogenerate ROS at the cellular level. PC-3 cells were treated with the compounds at the respective IC50,light and irradiated with blue light. Subsequently, ROS generation was measured using the 2′,7′-dichlorodihydrofluorescein diacetate (H2DCFDA) probe, which diffuses into cells and is oxidized by ROS to produce a green fluorescent signal. […] Nevertheless, to ascertain the potential contributions of other ROS to the photocytotoxic activity, the capacity of the compounds to undergo type I PDT processes, resulting in the production of superoxide anions (O2^•–), was examined using a specific fluorescent probe that emits an orange signal upon interaction with this radical. Ir-H, Ir-Me, and Ir-BN induced the most significant increase in O2^•– levels, with fold changes of 2.4, 3.5, and 3.4, respectively, compared to control cells. […] These findings highlight the diverse mechanisms of ROS generation employed by these compounds, in particular the Ir complexes, which may contribute to their overall photocytotoxic efficacy.
Figure 9 Intracellular ROS generation. PC-3 cells were treated with the indicated complexes and metallopeptides at their respective IC50,light for 4 h, followed by blue light irradiation for 1 h (460 nm, 24.1 J cm^–2). The elevation of general ROS (A) and superoxide anion (B) levels was determined with specific probes by flow cytometry. Bars represent the mean fold increase (±standard deviation) relative to control untreated cells from three independent experiments. * p < 0.05; ** p < 0.01, *** p < 0.001 compared to control cells.
A similar protocol was followed to evaluate superoxide production using the ROS-ID Superoxide Detection Kit (Enzo Life Sciences) according to the manufacturer’s instructions.

[2] = MRC-5, 4 h incubation, blue light 1 h (460 nm, 24.1 J cm^–2), MTT after 48 h, read-out: IC50 MRC-5 Light
[3] = MRC-5, 4 h incubation, kept in the dark 1 h, MTT after 48 h, read-out: IC50 MRC-5 Dark
[4] = PC-3, 4 h incubation, blue light 1 h (460 nm, 24.1 J cm^–2), MTT after 48 h, read-out: IC50 PC-3 Light
[5] = PC-3, 4 h incubation, kept in the dark 1 h, MTT after 48 h, read-out: IC50 PC-3 Dark
[6] = A549, 4 h incubation, blue light 1 h (460 nm, 24.1 J cm^–2), MTT after 48 h, read-out: IC50 A549 Light
[7] = A549, 4 h incubation, kept in the dark 1 h, MTT after 48 h, read-out: IC50 A549 Dark

Row | IC50 [1, 4] [µM] | IC50 [1, 5] [µM] | PI (IC50,dark/IC50,light) PC-3 ([1]; PC-3) | IC50 (A549 lung cancer cells; [6]) [µM] | IC50 (A549 lung cancer cells; [7]) [µM] | PI (IC50,dark/IC50,light) A549 (A549 lung cancer cells; A549) | SMILES | IC50 (MRC-5 fibroblasts; [2]) [µM] | IC50 (MRC-5 fibroblasts; [3]) [µM] | PI (IC50,dark/IC50,light) MRC-5 (MRC-5 fibroblasts; MRC-5) | O2•– levels, fold change versus control cells (PC-3 cells) [fold] | other results
1 | 9.23 ± 0.63 | 32.2 ± 1.9 | 3.49 and 3.5 | 3.32 ± 1.1 | 35 ± 5.4 | 10.5 | Cn1c2ccccc2c2ccnc(-c3ccc(/C=C/C(=O)O)cn3)c21.[Cl-].[Ir+3].[c-]1ccccc1-c1ccccn1.[c-]1ccccc1-c1ccccn1 [Ir-H] | 6.46 ± 0.801 | 39.1 ± 2.4 | 6.1 | 2.4 | 
2 | 34.8 ± 4.3 | 70.4 ± 2.7 | 2.0 | 56.7 ± 1.6 | 67.8 ± 6.7 | 1.2 | Cn1c2ccccc2c2ccnc(-c3ccc(/C=C/C(=O)O)cn3)c21.[Cl-].[Cl-].[Ru+2].c1ccc(-c2ccccn2)nc1.c1ccc(-c2ccccn2)nc1 [Ru-H] | 43.5 ± 4.5 | 53.9 ± 5.4 | 1.2 |  | PI (IC50,dark/IC50,red light) MRC-5 (MRC-5 fibroblasts; MRC-5, red light 655 nm): 0.9; IC50 (MRC-5 fibroblasts; MRC-5, red light 1 h (655 nm, 24.1 J cm^–2), MTT after 48 h, read-out: IC50,redlight MRC-5): 62.3 ± 7.1 µM; PI (IC50,dark/IC50,red light) PC-3 ([1]; PC-3, red light 655 nm): 1.3; IC50 ([1]; PC-3, red light 1 h (655 nm, 24.1 J cm^–2), MTT after 48 h, read-out: IC50,redlight PC-3): 54.3 ± 4.7 µM
3 |  |  | 4.1 |  |  | 5.4 | CC(C)C[C@H](NC(=O)[C@H](CC(C)C)NC(=O)[C@H](Cc1c[nH]cn1)NC(=O)CNC(=O)[C@@H](NC(=O)[C@H](C)NC(=O)[C@H](Cc1c[nH]c2ccccc12)NC(=O)[C@H](CCC(N)=O)NC(=O)[C@H](CC(N)=O)NC(=O)CNC(=O)[C@H](CC(C)C)NC(=O)[C@H](CCCNC(=N)N)NC(=O)[C@H](CCC(N)=O)NC(=O)/C=C/c1ccc(-c2nccc3c4ccccc4n(C)c23)nc1)C(C)C)C(N)=O [Ir-BN] (X1-QRLGNQWAVGHLL-NH2) |  |  | 2.8 | 3.4 | IC50 (MRC-5 fibroblasts; 4 h): 28.7 ± 5.9 µM; IC50,light in MRC-5, fold higher than that of Ir-H (MRC-5 fibroblasts; MRC-5, blue light): 4.4 fold; IC50,dark in MRC-5, fold higher than that of Ir-H (MRC-5 fibroblasts; MRC-5, dark): 2.1 fold; IC50 ([1]; 4 h): 8.51 ± 0.8 µM; photoselectivity index (IC50,dark in nonmalignant cells/IC50,light in GRPR overexpressing cancer cells) ([1]; 24 h): 9.5; selectivity for PC-3 cells with respect to MRC-5 fibroblasts ([1]; after blue light): 3.4 fold; IC50 (A549 lung cancer cells; 4 h): 12.6 ± 1.3 µM
4 | 0.0723 ± 0.031 | 1.17 ± 0.29 | 16.2 | 0.0334 ± 0.0068 | 0.471 ± 0.031 | 14.2 | COC(=O)/C=C/c1ccc(-c2nccc3c4ccccc4n(C)c23)nc1.[Cl-].[Ir+3].[c-]1ccccc1-c1ccccn1.[c-]1ccccc1-c1ccccn1 [Ir-Me] | 0.0313 ± 0.019 | 1.12 ± 0.31 | 35.8 | 3.5 | 

From PMC11483813, “Bombesin-Targeted Delivery of β-Carboline-Based Ir(III) and Ru(II) Photosensitizers for a Selective Photodynamic Therapy of Prostate Cancer” (Inorganic Chemistry, 2024)
